Measurements taken from patent publication US5539123A, “Low molecular weight thiocarbamates as inhibitors of elastase, uses and method of synthesis” (University of Kentucky Research Foundation, priority 1994, dated 1996).

Legend:
[1] = biological target: T1, Human Leucocyte Elastase (Homo sapiens, UniProt P08246); assay: Inactivation of Human Leucocyte Elastase (HLE-catalyzed hydrolysis of N-Methoxysuccinyl-L-Ala-L-Ala-L-Pro-L-Val-p-nitroanilide); type: biochemical; settings: for times more potent than PC1: compared with PC1, kobs/I=3.3×10^4 M^-1 s^-1; for kinact/KI: second order rate constant, pH 7.5, 25° C., read-out: kobs/I
T1 construct: Human leucocyte elastase from human sputum was purchased from elastin corporation; purchased elastin corporation; host or cells: human sputum
T1 sequence (P08246 30-247 limits assumed): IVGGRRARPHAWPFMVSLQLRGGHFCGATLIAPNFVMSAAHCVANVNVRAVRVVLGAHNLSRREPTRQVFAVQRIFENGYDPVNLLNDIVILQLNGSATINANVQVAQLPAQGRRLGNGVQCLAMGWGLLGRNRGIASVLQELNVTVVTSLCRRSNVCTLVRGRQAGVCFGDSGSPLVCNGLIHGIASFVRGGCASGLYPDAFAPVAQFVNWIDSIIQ
Method: Therefore, second order rate constants (kobs /I, M^-1 s^-1), (I=concentration inhibitor molar) shown in Formula 1, were determined by following the inactivation of the enzyme for 2 hours as described in the experimental section. […] The results are plotted as % of relative remaining activity vs time which is the absolute remaining activity in the presence of inhibitor divided by the absolute remaining activity of the free enzyme in absence of inhibitor for the same time interval.
In such a case a semilog plot of the relative remaining activity (A/Ao) vs time would describe a curve approaching the fractional activity (F) at longer times whereas a semilog plot of (A/Ao-F)/(1-F) vs time will be linear with a slope equal to the kobs, the pseudofirst order rate constant (equation 2).
The inactivation of HLE enzyme appears to involve the chemical modification of one residue on the enzyme and the pseudofirst order rate constant kobs divided by the concentration of the inhibitor (I) can be used as a measure of the inhibitory activity of the compounds (equation 3).
Human leucocyte elastase from human sputum was purchased from elastin corporation. Hepes, 4-(2-hydroxyethyl)-1-piperazineethanesulfonic acid, was purchased from Aldrich Chemical Co. (Milwaukee, Wis.). Substrate N-Methoxysuccinyl-L-Ala-L-Ala-L-Pro-L-Val-p-nitroanilide was purchased from Sigma Chemicals. Absorbance was measured with a VARIAN CARY-2200 spectrophotometer at 410 nm.
5 μl of acetate buffer (0.05M Sodium Acetate adjusted with 6N HCl to ph=5.5) is added to the reference cuvette, and the cuvette is shaken for 15 seconds to mix the solution. 5 μl of HLE 3.7×10^-5 M in acetate buffer is added to the sample cuvette and the cuvette is shaken for 15 seconds. Both cuvettes were placed in the jacketed cuvette holders of the spectrophotometer and incubated at 25° C. for a fixed time interval up to 2 hours (Incubation periods of 3, 4, 5, 7, 10, 15, 20, 30, 45, 60, 90 and 120 minutes were used).
Shortly before the incubation period ends, the cuvettes are balanced at 410 nm. […] The cuvettes are shaken for 15 seconds and the absorbance is recorded at 410 nm at 1 min, 2 min and 3 min after addition of substrate. A control in which 50 μl of dimethyl sulfoxide used to dissolve the inhibitor is added in its place, is done in the same manner as above for each incubation period.
Absorbance of sample is the absolute remaining activity of HLE (A), and absorbance of control is the total activity of HLE (Ao).
% Relative Remaining Activity=(A/Ao)×100
The % relative remaining activity of the HLE for each inhibitor is plotted against the time of incubation and from the slope of the semilog plot the kobs is determined.
The equation that describes this model is:
A/Ao=(1-F)e^-Kobst +F (equation 1)
Rearranging results in a linear relationship
Ln ((A/Ao)-F/1-F)=-kobs t (equation 2)
A semilog plot results in a straight line with slope=kobs, the pseudofirst order rate constant ksec =kobs /I (equation 3)
The ksec is the second order independent rate constant that is used to compare the inhibitory activity of the compounds against HLE.

[2] = Stability in excess of methanol with normal phase HLPC/HPLC; type: physicochemical
Method: The flow was maintained at 1 ml/min, and a KRATOS variable UVdetector at 265 nm was used. Two separate experiments were conducted under the above conditions in which the stability of (1E) was [drawing 16] monitored in excess of methanol.
The above two experiments indicate that (1E) is consumed at the same rate as the thiol tetrazole (D) is produced. The thiol tetrazole (D) is exclusively produced from the degradation of the thiocarbamate with methanol. In other words (1E) reacts with methanol to give thiol tetrazole (D) and most probably N-n-butyl, methylcarbamate which cannot be detected under the above conditions.

[3] = inactivation followed for 2 hours

Row | kinact/KI [1, 3] [M⁻¹ s⁻¹] | Compound | inhibition of HLE [1] | also measured
1 |  | CCCCN [Compound 1A, n-butylamine] | None of the corresponding amines (1A, 2A, 3A, 4A, 5A and 6A) nor 1-phenyl-1H-tetrazole-5-thiol (D) inhibited HLE | 
2 | 210000 | CCCCNC(=O)Sc1nnnn1-c1ccccc1 [Compound 1E, N-butyl, 1-phenyl-1H-tetrazole-5-thiocarbamate] |  | times more potent than PC1 [1]: 10 times; stability [2]: fairly stable; half-life ([2]; calculated from the pseudofirst order rate constants): 17 days
3 |  | C=CCN [Compound 2A] | None of the corresponding amines (1A, 2A, 3A, 4A, 5A and 6A) nor 1-phenyl-1H-tetrazole-5-thiol (D) inhibited HLE | 
4 | 61000 | C=CCNC(=O)Sc1nnnn1-c1ccccc1 [Compound 2E, N-allyl, 1-phenyl-1H-tetrazole-5-thiocarbamate] |  | times more potent than PC1 [1]: 2 times
5 |  | CC(C)N [Compound 3A, isopropyl amine] | None of the corresponding amines (1A, 2A, 3A, 4A, 5A and 6A) nor 1-phenyl-1H-tetrazole-5-thiol (D) inhibited HLE | 
6 | 3300 | CC(C)NC(=O)Sc1nnnn1-c1ccccc1 [Compound 3E, N-isopropyl, 1-phenyl-1H-tetrazole-5-thiocarbamate] |  | times more active than 4E ([1]; compared with (4E), kobs/I): 10 times
7 |  | Nc1ccccc1 [Compound 4A] | None of the corresponding amines (1A, 2A, 3A, 4A, 5A and 6A) nor 1-phenyl-1H-tetrazole-5-thiol (D) inhibited HLE | 
8 | 190 | O=C(Nc1ccccc1)Sc1nnnn1-c1ccccc1 [Compound 4E, N-phenyl, 1-phenyl-1H-tetrazole-5-thiocarbamate] |  | 
9 |  | CCCCNCC [Compound 5A, ethyl, butylamine] | None of the corresponding amines (1A, 2A, 3A, 4A, 5A and 6A) nor 1-phenyl-1H-tetrazole-5-thiol (D) inhibited HLE | 
10 | 180 | CCCCN(CC)C(=O)Sc1nnnn1-c1ccccc1 [Compound 5E, N-ethyl-N-butyl, 1-phenyl-1H-tetrazole-5-thiocarbamate] |  | 
11 |  | CC(C)NC(C)C [Compound 6A] | None of the corresponding amines (1A, 2A, 3A, 4A, 5A and 6A) nor 1-phenyl-1H-tetrazole-5-thiol (D) inhibited HLE | 
12 |  | CC(C)N(C(=O)Sc1nnnn1-c1ccccc1)C(C)C [Compound 6E, N, N-diisopropyl, 1-phenyl-1H-tetrazole-5-thiocarbamate] | no inhibitory activity | kobs/I (class symbol) [1, 3]: N.I.
13 |  | Sc1nnnn1-c1ccccc1 [D, 1-phenyl-1H-tetrazole-5-thiol] | None of the corresponding amines (1A, 2A, 3A, 4A, 5A and 6A) nor 1-phenyl-1H-tetrazole-5-thiol (D) inhibited HLE | 
